Results published in ChEMBL document CHEMBL4823263, “Discovery of 2-(3-(3-Carbamoylpiperidin-1-yl)phenoxy)acetic Acid Derivatives as Novel Small-Molecule Inhibitors of the β-Catenin/B-Cell Lymphoma 9 Protein-Protein Interaction” (J Med Chem, 2021).

Legend:
[1] = Downregulation of HPRT level in human SW480 cells at 30 uM incubated for […] by quantitative real-time PCR analysis relative to control; format: ADME, cell-based; conditions: sw480, 30 µM
[2] = Downregulation of HPRT in human MDA-MB-231 cells assessed as HPRT level at 3.3 uM incubated for […] by quantitative real-time PCR analysis relative to control; format: ADME, cell-based; conditions: mda-mb-231, 3.3 µM
[3] = tested on: SW480; experiment: Inhibition of Wnt/beta-catenin transactivation signalling in human SW480 cells harboring mutant tcf4 binding sites assessed as relative activity at 12.5 uM incubated for 24 hrs by FOPFlash luciferase assay relative to control; format: cell-based; parameters: scale not given: the % may be the effect or the level left
[4] = (§1) Inhibition of Wnt/beta-catenin transactivation signalling in human SW480 cells harboring wild type tcf4 binding sites incubated for 24 hrs by TOPFlash luciferase assay; format: cell-based
[5] = tested on: SW480; experiment: as §1; format: cell-based
[6] = target: Protein Wnt-3a (Mus musculus) (UniProt P27467); experiment: Inhibition of mouse wnt3a expressed in human MDA-MB-231 cells assessed as LEF1 level at 3.3 uM incubated for […] by quantitative real-time PCR analysis relative to control; format: cell-based; parameters: scale not given: the % may be the effect or the level left
[7] = target: T1, beta-catenin-B-cell lymphoma 9 protein complex (Homo sapiens, UniProt P35222); experiment: Inhibition of full length C-terminal 6-His-tagged beta-catenin (1 to 781 residues) (unknown origin) expressed in Escherichia coli BL21 (DE3)-N-terminal biotinylated human BCL9 (350 to 375 residues) protein-protein interaction incubated for 1 hr by Alphascreen assay
T1 sequence (P35222 whole entry): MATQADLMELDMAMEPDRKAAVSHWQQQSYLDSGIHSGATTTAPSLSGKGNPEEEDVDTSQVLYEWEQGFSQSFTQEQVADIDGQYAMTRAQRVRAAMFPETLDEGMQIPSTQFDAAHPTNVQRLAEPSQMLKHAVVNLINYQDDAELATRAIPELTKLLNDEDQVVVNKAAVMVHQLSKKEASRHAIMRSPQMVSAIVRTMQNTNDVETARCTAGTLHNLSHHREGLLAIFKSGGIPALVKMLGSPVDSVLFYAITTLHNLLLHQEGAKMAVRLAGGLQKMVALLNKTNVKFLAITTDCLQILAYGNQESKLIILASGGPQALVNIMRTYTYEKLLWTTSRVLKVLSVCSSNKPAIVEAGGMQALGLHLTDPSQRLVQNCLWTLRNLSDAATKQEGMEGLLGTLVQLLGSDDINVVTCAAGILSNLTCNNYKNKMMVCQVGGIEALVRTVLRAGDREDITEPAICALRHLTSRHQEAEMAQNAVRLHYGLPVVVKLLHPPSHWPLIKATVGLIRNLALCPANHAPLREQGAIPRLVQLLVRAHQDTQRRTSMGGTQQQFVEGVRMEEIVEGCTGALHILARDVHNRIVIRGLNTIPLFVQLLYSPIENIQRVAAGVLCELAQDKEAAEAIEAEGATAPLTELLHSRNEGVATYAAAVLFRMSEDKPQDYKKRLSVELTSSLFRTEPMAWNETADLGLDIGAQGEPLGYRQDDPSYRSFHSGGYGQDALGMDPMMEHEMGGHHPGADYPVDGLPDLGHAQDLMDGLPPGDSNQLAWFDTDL
T1 sequence (O00512 whole entry): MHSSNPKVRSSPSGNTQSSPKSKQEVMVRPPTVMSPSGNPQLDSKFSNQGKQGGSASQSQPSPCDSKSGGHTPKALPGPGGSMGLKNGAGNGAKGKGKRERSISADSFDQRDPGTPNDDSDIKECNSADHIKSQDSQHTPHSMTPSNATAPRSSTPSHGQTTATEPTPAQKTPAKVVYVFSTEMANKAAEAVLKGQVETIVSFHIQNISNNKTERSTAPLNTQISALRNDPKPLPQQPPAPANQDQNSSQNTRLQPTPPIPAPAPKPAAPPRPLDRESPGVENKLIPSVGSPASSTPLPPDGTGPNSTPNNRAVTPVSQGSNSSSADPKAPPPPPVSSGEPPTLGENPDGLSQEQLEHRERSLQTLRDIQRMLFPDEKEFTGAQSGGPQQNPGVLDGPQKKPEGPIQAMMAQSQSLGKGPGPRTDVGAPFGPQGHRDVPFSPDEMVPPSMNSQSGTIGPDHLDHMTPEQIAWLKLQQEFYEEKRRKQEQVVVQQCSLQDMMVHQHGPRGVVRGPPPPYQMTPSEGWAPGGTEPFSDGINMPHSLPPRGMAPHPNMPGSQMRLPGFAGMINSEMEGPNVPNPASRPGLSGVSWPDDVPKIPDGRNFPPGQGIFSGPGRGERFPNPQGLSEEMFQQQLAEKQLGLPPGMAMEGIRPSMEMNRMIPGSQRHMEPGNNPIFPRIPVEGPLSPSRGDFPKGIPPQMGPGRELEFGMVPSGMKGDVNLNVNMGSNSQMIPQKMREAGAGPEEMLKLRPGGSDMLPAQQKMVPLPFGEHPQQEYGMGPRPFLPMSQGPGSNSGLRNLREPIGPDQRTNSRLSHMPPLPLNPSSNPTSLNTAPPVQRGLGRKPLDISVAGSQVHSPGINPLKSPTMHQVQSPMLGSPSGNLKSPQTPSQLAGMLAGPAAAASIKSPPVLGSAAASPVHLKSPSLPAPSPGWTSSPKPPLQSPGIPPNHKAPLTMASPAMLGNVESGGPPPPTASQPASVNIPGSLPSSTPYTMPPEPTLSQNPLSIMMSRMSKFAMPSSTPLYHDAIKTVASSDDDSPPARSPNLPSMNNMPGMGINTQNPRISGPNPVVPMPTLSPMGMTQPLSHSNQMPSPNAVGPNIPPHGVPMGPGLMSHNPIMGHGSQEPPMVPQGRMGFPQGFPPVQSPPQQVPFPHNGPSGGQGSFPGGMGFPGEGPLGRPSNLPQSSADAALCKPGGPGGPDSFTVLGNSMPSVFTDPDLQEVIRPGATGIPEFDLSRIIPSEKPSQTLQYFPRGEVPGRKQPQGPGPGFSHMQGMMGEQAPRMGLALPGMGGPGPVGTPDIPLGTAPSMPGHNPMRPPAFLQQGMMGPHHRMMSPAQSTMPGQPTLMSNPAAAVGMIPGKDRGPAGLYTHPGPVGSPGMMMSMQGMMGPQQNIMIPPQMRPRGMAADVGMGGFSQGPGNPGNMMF

[8] = target: Protein Wnt-3a (Mus musculus) (UniProt P27467); experiment: Inhibition of mouse wnt3a expressed in human MDA-MB-231 cells assessed as HPRT level at 30 uM incubated for […] by quantitative real-time PCR analysis relative to control; format: cell-based; parameters: scale not given: the % may be the effect or the level left
[9] = target: Protein Wnt-3a (Mus musculus) (UniProt P27467); experiment: Inhibition of mouse wnt3a expressed in human MDA-MB-231 cells assessed as cyclin D1 level at 3.3 uM incubated for […] by quantitative real-time PCR analysis relative to control; format: cell-based; parameters: scale not given: the % may be the effect or the level left

Sequence of Protein Wnt-3a (Mus musculus) (P27467 whole entry, the tested form may be a part): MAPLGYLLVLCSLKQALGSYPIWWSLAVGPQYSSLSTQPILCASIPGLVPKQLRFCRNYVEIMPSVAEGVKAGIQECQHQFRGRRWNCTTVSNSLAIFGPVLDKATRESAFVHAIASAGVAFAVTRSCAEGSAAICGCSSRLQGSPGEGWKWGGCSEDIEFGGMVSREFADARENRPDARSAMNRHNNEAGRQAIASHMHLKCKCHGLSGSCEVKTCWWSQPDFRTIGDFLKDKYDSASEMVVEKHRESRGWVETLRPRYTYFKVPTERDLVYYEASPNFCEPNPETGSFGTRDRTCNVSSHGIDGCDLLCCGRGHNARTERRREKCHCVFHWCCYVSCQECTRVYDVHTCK

Activity [1]: 99%
Activity [2]: 102%
IC50 [4]: 6.6 µM
Activity [6]: 87%
IC50 [7]: 4.4 µM
Activity [8]: 99%
Activity [9]: 94%
SMILES: CC(C)(Oc1cccc(N2CCC[C@H](C(=O)N(Cc3ccc(-c4cccs4)cc3)C3CC3)C2)c1)C(=O)NS(=O)(=O)c1ccc(C#N)cc1
Activity [3]: 102%
Activity [5]: Dose-Dependent Effect
